Literature values, collected in patent publication US20080044486A1, “Controlled Food Effect Composition” (priority 2003, published 2008).

Experiments:
[1] = oral, conventional pharmaceutical composition

Row | SMILES | Food effect in a conventional composition (references) [1] | LogP
1 | CCOC(=O)/C=C(C)/C=C/C=C(C)/C=C/c1c(C)cc(OC)c(C)c1C [Etretinate] | – | 6.6
2 | CCOC(=O)C1=C(C)NC(C)=C(C(=O)OC)C1c1cccc(Cl)c1Cl (stereo not shown) [Felodipine] | High-fat food gives increased | –
3 | CC1=C(/C=C/C(C)=C/C=C/C(C)=C\C(=O)O)C(C)(C)CCC1 [Isotretinoin] | Increased absorption (7) | –
4 | NC(=O)c1cn(Cc2c(F)cccc2F)nn1 [Rufinamide] | – | 0.8
5 | C#C[C@]1(O)CC[C@H]2[C@@H]3CCC4=Cc5oncc5C[C@]4(C)[C@H]3CC[C@@]21C [Danazol] | – | 4.3
6 | CO[C@H]1O[C@@H]2O[C@@]3(C)CC[C@H]4[C@H](C)CC[C@@H]([C@H]1C)[C@@]24OO3 [Artemether] | High-fat food gives increased | 3.5
7 | CO[C@H]1C[C@@H]2CC[C@@H](C)[C@@](O)(O2)C(=O)C(=O)N2CCCC[C@H]2C(=O)O[C@H]([C@H](C)C[C@@H]2CC[C@@H](O)[C@H](OC)C2)CC(=O)[C@H](C)/C=C(\C)[C@@H](O)[C@@H](OC)C(=O)[C@H](C)C[C@H](C)/C=C/C=C/C=C/1C [Sirolimus] | High-fat food gives increased | 5.3
8 | CCCC(CCC)C(=O)O [Valproic acid] | Delayed absorption and reduced | –
9 | Cc1c(-c2cnccn2)ssc1=S [Oltipraz] | Increased absorption (6) | 1.7
10 | COc1cc(C)c(/C=C/C(C)=C/C=C/C(C)=C/C(=O)O)c(C)c1C [Acitretin] | Increased absorption (2, 4) | 6.4
11 | CC(=O)Oc1ccccc1C(=O)O [Acetylsalicylic acid] | Delayed absorption and reduced | –
12 | CC(C)OC(=O)OCOP(=O)(CO[C@H](C)Cn1cnc2c(N)ncnc21)OCOC(=O)OC(C)C [Tenofovir disoproxil] | High-fat food gives increased | 0.6
13 | NC(=O)c1ncn([C@@H]2O[C@H](CO)[C@@H](O)[C@H]2O)n1 [Ribavirin] | High-fat food gives increased | −1.9
14 | CC(=O)S[C@@H]1CC2=CC(=O)CC[C@]2(C)[C@H]2CC[C@@]3(C)[C@@H](CC[C@@]34CCC(=O)O4)[C@H]12 [Spironolactone] | Increased absorption and reduced | 2.8

The next lines start with the values.

Row | Food effect in a conventional composition (references) [1] | LogP | SMILES
15 | Increased absorption (3) | – | CCCCc1oc2ccccc2c1C(=O)c1cc(I)c(OCCN(CC)CC)c(I)c1 [Amiodarone]
16 | High-fat food gives increased | 8.9 | CCCCN(CCCC)CC(O)c1cc(Cl)cc2c1-c1ccc(Cl)cc1/C2=C/c1ccc(Cl)cc1 (stereo not shown) [Lumefantrine]
17 | High-fat food gives increased | 6.1 | CC1=C(/C=C/C(C)=C/C=C/C(C)=C/C(=O)Nc2ccc(O)cc2)C(C)(C)CCC1 [Fenretinide]
18 | Increased absorption (2) | 4.1 | COC(=O)C1=C(C)NC(C)=C(C(=O)OCCN2CCN(C(c3ccccc3)c3ccccc3)CC2)C1c1cccc([N+](=O)[O-])c1 (stereo not shown) [Manidipine]
19 | High-fat food gives increased | 4.9 | O=C1C(O)=C([C@H]2CC[C@H](c3ccc(Cl)cc3)CC2)C(=O)c2ccccc21 [Atovaquone]
20 | Increased absorption (1, 4, 5) | – | CC(C)c1nc(CN(C)C(=O)N[C@H](C(=O)N[C@@H](Cc2ccccc2)C[C@H](O)[C@H](Cc2ccccc2)NC(=O)OCc2cncs2)C(C)C)cs1 [Ritonavir]
21 | Increased absorption (2, 4) | – | CC(C)/N=c1\cc2n(-c3ccc(Cl)cc3)c3ccccc3nc-2cc1Nc1ccc(Cl)cc1 [Clofazimine]
22 | – | 3.8 | CC(C)(C)NC(=O)[C@@H]1C[C@@H]2CCCC[C@@H]2CN1C[C@@H](O)[C@H](Cc1ccccc1)NC(=O)[C@H](CC(N)=O)NC(=O)c1ccc2ccccc2n1 [Saquinavir]
23 | Increased but delayed absorption | – | CCOC(=O)N1CCC(=C2c3ccc(Cl)cc3CCc3cccnc32)CC1 [Loratadine]
24 | – | 5.5 | O=C(c1ccc(OCCN2CCCCC2)cc1)c1c(-c2ccc(O)cc2)sc2cc(O)ccc12 [Raloxifene]
25 | Increased but delayed absorption | 5.7 | CCC(C)n1ncn(-c2ccc(N3CCN(c4ccc(OCC5COC(Cn6cncn6)(c6ccc(Cl)cc6Cl)O5)cc4)CC3)cc2)c1=O (stereo not shown) [Itraconazole]
